According to patent publication US5834429A, “Small peptides which inhibit binding to T-4 receptors and act as immunogens” (priority 1993, dated 1998):

What was measured:
[1] = tested on: T4 antigen (gp120 receptor) on fresh rat hippocampal membranes; test: Displacement of specific 125I-gp120 binding to brain membranes; conditions: for potency compared with peptide T (in words): FIG. 3; for rank order of potencies in inhibiting receptor binding: four peptides
Procedure: HTLV-IIIb isolate of HIV was propaged in H9 cells, and the gp120 was isolated by immunoaffinity chromatography and preparative NaDodSO4 /PAGE. Purified gp120 was labeled with ^125 I by the chloramine-T method.
Fresh human, monkey, and rat hippocampus were quickly homogenized (POLYTRON, Brinkmann Instruments) in 100 vol of ice-cold 50 mM Hepes (pH 7.4). The membranes collected by centrifugation (15,000×g) were washed in the original buffer volume and were used fresh or stored at -70° C. Before use, brain membranes and highly purified T cells (ref. 16; gift of Larry Wahl) were preincubated for 15-30 min in phosphate-buffered saline (PBS). Membranes derived from 2 mg (initial wet weight) of brain (.chi.100 μg of protein) were incubated with 28,000 cpm of ^125 I-gp120 for 1 hr at 37° C. in 200 μl (final volume) of 50 mM Hepes containing 0.1% bovine serum albumin and the peptidase inhibitors bacitracin (0.005%), aprotinin (0.005%), leupeptin (0.001%), and chymostatin (0.001%). Incubations were rapidly vacuum-filtered and counted to determine the receptor-bound material.

HTLV-III virus (HIV) = test: Blockade of viral infection of human T cells (reverse transcriptase activity); format: cell-based; conditions: FIG. 3; for rank order of potencies in inhibiting viral infectivity: four peptides
Procedure: Separation of T-Lymphocyte Subsets. Subsets of T cells were obtained by treatment of PERCOLL density-purified peripheral blood T cells with specific monoclonal antibodies (T4 or T8) at 10 μg/ml. The treated cells were then panned (21) on a plastic Petri dish that was coated with goat [F(ab')2 ] anti-mouse immunoglobulin (Sero Lab, Eastbury, Mass.) for 30 min at 4° C. The nonadherent cells were then removed, washed, and analyzed for reactivity by flow cytometry. The separated T4 and T8 cell populations have <5% contamination of other T-cell subsets. Cells were then cultured with phytohemagglutinin (1 μg/ml) for 72 hr and exposed to HIV as described below. Infected cells were phenotypically characterized when cytotoxicity assays were performed.
Virus Infection. The HTLV-III virus used for infection was isolated from an interleukin 2 (IL-2)-dependent cultured T-cell line established from fresh AIDS patient material and passaged into HuT 78, a permissive IL-2-independent cell line.

T4 viral receptors = T4 viral receptors (Homo sapiens, UniProt P01730); test: Activity of cysteine-extended core peptide (test not specified)

Question: What does the source list for `C[C@@H](N)C(=O)N[C@@H](CO)C(=O)N[C@H](C(=O)N[C@H](C(=O)N[C@H](C(=O)N[C@@H](CC(N)=O)C(=O)N[C@@H](Cc1ccc(O)cc1)C(=O)N[C@H](C(N)=O)[C@@H](C)O)[C@@H](C)O)[C@@H](C)O)[C@@H](C)O` [D-[Ala]1-peptide T-amide]?
Answer: potency compared with peptide T (in words) [1]: somewhat greater potency; rank order of potencies in inhibiting receptor binding [1]: D-[Ala]1 -peptide T-amide>D-[Ala]1 -peptide T>peptide T>D-[Thr]8 -peptide T-amide; rank order of potencies in inhibiting viral infectivity (HTLV-III virus (HIV)): D-[Ala]1 -peptide T-amide>D-[Ala]1 -peptide T>peptide T>D-[Thr]8 -peptide T-amide

Question: What does the source list for `C[C@@H](N)C(=O)N[C@@H](CO)C(=O)N[C@H](C(=O)N[C@H](C(=O)N[C@H](C(=O)N[C@@H](CC(N)=O)C(=O)N[C@@H](Cc1ccc(O)cc1)C(=O)N[C@H](C(=O)O)[C@@H](C)O)[C@@H](C)O)[C@@H](C)O)[C@@H](C)O` [D-[Ala]1-peptide T]?
Answer: potency compared with peptide T (in words) [1]: consistently more potent; rank order of potencies in inhibiting receptor binding [1]: D-[Ala]1 -peptide T-amide>D-[Ala]1 -peptide T>peptide T>D-[Thr]8 -peptide T-amide; rank order of potencies in inhibiting viral infectivity (HTLV-III virus (HIV)): D-[Ala]1 -peptide T-amide>D-[Ala]1 -peptide T>peptide T>D-[Thr]8 -peptide T-amide

Question: How did the “inhibition of gp120 binding to brain membranes (in words)” value [1] turn out when `C[C@H](N)C(=O)N[C@@H](CO)C(=O)N[C@H](C(=O)N[C@H](C(=O)N[C@H](C(=O)N[C@@H](CC(N)=O)C(=O)N[C@@H](Cc1ccc(O)cc1)C(=O)N[C@H](C(=O)O)[C@@H](C)O)[C@@H](C)O)[C@@H](C)O)[C@@H](C)O` [peptide T] was run?
Answer: The value was “inhibit binding of gp 120 to the brain membranes”.

Question: And the “rank order of potencies in inhibiting receptor binding” value [1]?
Answer: The value was “D-[Ala]1 -peptide T-amide>D-[Ala]1 -peptide T>peptide T>D-[Thr]8 -peptide T-amide”.

Question: And the “concentration range at which 125I-gp120 binding is significantly inhibited” value ([1]; fresh rat hippocampal membranes, FIG. 2C)?
Answer: Its value is roughly 0.1 nM.

Question: What about the “rank order of potencies in inhibiting viral infectivity” value (HTLV-III virus (HIV)) of the same compound?
Answer: The value was “D-[Ala]1 -peptide T-amide>D-[Ala]1 -peptide T>peptide T>D-[Thr]8 -peptide T-amide”.

Question: And the “blockade of viral infectivity (in words)” value (HTLV-III virus (HIV); human T cells)?
Answer: The value was “blocked”.

Question: With “CYS-THR-THR-ASN-TYR-THR-CYS (CTTNYTC; printed: CYS-THR-THR-ASN-TYR-THR-CYS)” as the compound, how does the “activity (in words)” value (T4 viral receptors) read?
Answer: The value was “active”.

Question: How did the “inhibition of gp120 binding to brain membranes (in words)” value [1] turn out when “substance P [1-8]: irrelevant octapeptide substance P [1-8] (RPKPQQFF; Substance P; UniProt P20366 58-65, looked up, fragment) [reference compound]” was run?
Answer: Its value is “not”.
